Data as given in the supplement of paper PMC6045584.
± gives the standard deviation of the averaged measurements.

Key:
SORAFENIB = compound: CNC(=O)c1cc(Oc2ccc(NC(=O)Nc3ccc(Cl)c(C(F)(F)F)c3)cc2)ccn1 [SORAFENIB]; assay: surviving fraction relative to DMSO-only wells; higher = less growth inhibition; settings: exposure time: 5 days
Summary of the method: (§1)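 Continuous five-day exposure to inhibitors at 0.5, 1, 5, 10, 50, 100, 500 and 1000 nM started 24 hours after log-phase tumour cell lines were seeded at 250–500 cells per well in 384-well plates. Luminescence was read after 10 minutes at room temperature. Viability is given as surviving fraction, meaning CellTiter-Glo luminescence normalised to the median of DMSO-only wells.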

[1] = compound: CNCc1ccc(-c2[nH]c3cc(F)cc4c3c2CCNC4=O)cc1; assay: as above; settings: exposure time: 5 days
Summary of the method: as §1

Test System	surviving fraction (SORAFENIB; 0.5 nM)	surviving fraction (SORAFENIB; 1 nM)	surviving fraction (SORAFENIB; 5 nM)	surviving fraction (SORAFENIB; 10 nM)	surviving fraction (SORAFENIB; 50 nM)	surviving fraction (SORAFENIB; 100 nM)	surviving fraction (SORAFENIB; 500 nM)	surviving fraction ([1]; 0.5 nM)	surviving fraction ([1]; 1 nM)	surviving fraction ([1]; 5 nM)	surviving fraction ([1]; 10 nM)	surviving fraction ([1]; 50 nM)	surviving fraction ([1]; 100 nM)	surviving fraction ([1]; 500 nM)	surviving fraction ([1]; 1000 nM)	surviving fraction (SORAFENIB; 1000 nM)
G292 BONE	0.973 ± 0.051	0.967 ± 0.034	1.01 ± 0.02	1.02 ± 0.04	1.01 ± 0.058	0.96 ± 0.016	0.918 ± 0.025	0.998 ± 0.075	0.981 ± 0.037	1.05 ± 0.053	0.975 ± 0.012	0.9877 ± 0.0081	0.932 ± 0.021	0.8 ± 0.044	0.775 ± 0.035	
HCC38 BREAST	1.19 ± 0.19		1.27 ± 0.14	1.18 ± 0.16	1.26 ± 0.29	1.32 ± 0.21	1.29 ± 0.26	0.703 ± 0.16	0.805 ± 0.24	0.971 ± 0.31	0.705 ± 0.14	0.528 ± 0.1	0.607 ± 0.047	0.492 ± 0.22	0.45 ± 0.035	1.22 ± 0.26
HCC70 BREAST	1.01 ± 0.069	0.976 ± 0.082	1.1 ± 0.057	1.01 ± 0.032	1.22 ± 0.019	1.34 ± 0.081	1.33 ± 0.032	1.07 ± 0.061	1.12 ± 0.037	1.16 ± 0.098	1.1 ± 0.11	1.12 ± 0.12	1.11 ± 0.017	1.12 ± 0.11	1.12 ± 0.052	1.25 ± 0.16
HMLE3 BREAST	0.899 ± 0.033	1 ± 0.0095	1.08 ± 0.084	1.1 ± 0.045	1.3 ± 0.044	1.41 ± 0.045	1.41 ± 0.021	1.13 ± 0.039	1 ± 0.042	1.11 ± 0.051	1.07 ± 0.051	0.986 ± 0.17	1.03 ± 0.082	0.856 ± 0.14	0.879 ± 0.056	1.41 ± 0.079
HMT3552 BREAST	1.1	1.03			1.33	1.29	1.36	0.99 ± 0.063	0.968 ± 0.043	0.95 ± 0.031	1 ± 0.0095	0.817 ± 0.037	0.84 ± 0.022	0.78 ± 0.042	0.723 ± 0.079	1.29
HS57T BREAST	0.987 ± 0.058	1.045 ± 0.0089	1.05 ± 0.031	1.082 ± 0.0081	1.09 ± 0.057	1.15 ± 0.084	0.965 ± 0.059	0.972 ± 0.021	0.994 ± 0.063	1.03 ± 0.09	0.979 ± 0.055	0.929 ± 0.077	0.971 ± 0.06	0.881 ± 0.03	0.865 ± 0.038	0.951 ± 0.021
HS578T BREAST	0.671 ± 0.16	0.862 ± 0.077	0.766 ± 0.015	0.776 ± 0.018	0.831 ± 0.15	0.794 ± 0.034		0.959 ± 0.13	0.875 ± 0.042	0.912 ± 0.11	0.927 ± 0.17	0.892 ± 0.062	0.937 ± 0.067	0.763 ± 0.059	0.801 ± 0.13	
